# Data taken from article PMC12544700, “Identification of a Small Secretoneurin Derivative That Inhibits CaMKIIδ Activity” (Journal of Cellular and Molecular Medicine, 2025).
# Peptide text beside a SMILES is read from it. * marks the point of attachment. Biotin = O=C1N[C@H]2[C@H](CS[C@H]2CCCCC(=O)*)N1; Ahx = NCCCCCC(=O)O
# Columns and labels:
# [1] = test system: CaMKIIδ fragments (aa 1–74, 1–165, 1–282, 1–311, 69–282); assay: ELISA-based binding to CaMKIIδ fragments; set-up: species or system rat; details: biotinylated peptide; fragments coated in wells; relative to Scram; Figure 2B, n = 9–13
# Method: Recombinant human His‐CaMKIIδ‐T287D and rat His‐CaMKIIδ‐T287D full‐length proteins (T287D mutated to mimic active kinases) and rat His‐CaMKIIδ (1–74), rat His‐CaMKIIδ (1–165), rat His‐CaMKIIδ (1–282), rat His‐CaMKIIδ‐T287D (1–311), and rat His‐CaMKIIδ (69–282) recombinant fragments were generated by Genscript Corp.
# A 96‐well microplate was coated with 1 μg/well of rat or human recombinant His‐CaMKIIδ‐T287D or CaMKIIδ fragments (custom made by Genscript) in 1× PBS overnight at 4°C with gentle tilting. Wells were washed with 1× PBS‐t (0.1% Tween‐20) and blocked with 0.5% gelatin (G‐1890 Gelatin type A, Sigma Merck, Darmstadt, Germany) or BSA (805095 30% BSA (Rinderalbumin 30%), Norsk Labex, Høvik, Norway) for 1 h at room temperature (RT), then incubated with 5 μL of biotinylated peptide (1 mM) for 2 h at 37°C with gentle tilting. The wells were then washed five times with 1× PBS‐t. To detect binding, the wells were incubated with a monoclonal anti‐biotin‐HRP conjugated antibody (1:5000 dilution, A‐0185, Sigma) for 30 min at RT. […] The reaction was stopped by adding 2 N HCl (100 μL), and the signal was measured at 450 nm by a plate reader (Hidex Sense Microplate Reader, Åbo, Finland). […]
# [2] = target: T1, Recombinant rat CaMKIIδ‐T287D (Rattus norvegicus, UniProt P15791, T287D); assay: ELISA-based competition assay with T‐site binding peptides; details: 5 μL 1 mM biotin‐SN‐db‐short with 20 μL 1 mM untagged competitor; Figure 2C, n = 4–12
# T1 construct: Recombinant human His‐CaMKIIδ‐T287D and rat His‐CaMKIIδ‐T287D full‐length proteins; His; purchased Genscript Corp (custom made)
# Method: The wells were then washed five times with 1× PBS‐t. […] For the competition assay, 20 μL (1 mM) of T‐site binding peptides AKAP18δ‐N1, CN21 or CN27 (without any biotin tags) were incubated in the same well with 5 μL (1 mM) of SN biotinylated peptides.
# adult rat cardiomyocytes = assay: Caffeine-elicited Ca2+ transients (Ca2+ extrusion); format: cell-based; details: 10 mM caffeine; whole‐cell photometry; Figure S3, n = 10–18, 4–6 rats
# Method: Male Wistar rats (Janvier, France) weighing ~300 g were sedated in an anaesthesia chamber by inhalation of 5% isoflurane and 95% O2. The heart was excised under deep surgical anaesthesia, cannulated, and then retrogradely perfused through the aorta on a modified Langendorff setup with cell isolation solution containing (in mM, pH adjusted to 7.4, 37°C): NaCl 130, Hepes 25, D‐glucose 22, KCl 5.4, MgCl2 0.5, NaH2PO4 0.4, and a flow rate of 4 mL/min. After the heart was cleaned of blood, collagenase type II (2 mg/mL, Worthington Biochemical Corp, Lakewood, NJ, USA) was added to the perfusate, and the hearts digested for ~10 min. Following digestion, hearts were cut down, and the left ventricle dissected into pieces, which were transferred into 10 mL cell isolation solution with 250 μL BSA (40 mg/mL) and ~0.2 mg Deoxyribonuclease I (Worthington Biochemical Corporation, Lakewood, NJ, USA). […]
# To estimate SR Ca^2+ content, Ca^2+ release was triggered by rapid exposure to 10 mM caffeine (Sigma) and recorded by whole‐cell photometry (Photon Technology International, Monmouth Junction, NJ, USA) with a 40× oil objective. Cells were first stimulated at 1 Hz in Hepes‐Tyrode (HT, see the paragraph above) solution containing CaCl2 until at least three stable Ca^2+ transients were recorded. […]
structure (smiles),measurement,setting,value
CC(C)C[C@H](NC(=O)[C@H](CCC(=O)O)NC(=O)[C@H](CCC(N)=O)NC(=O)[C@H](Cc1ccccc1)NC(=O)[C@H](Cc1ccccc1)NC(=O)[C@H](CO)NC(=O)[C@H](CCC(=O)O)NC(=O)[C@H](Cc1ccccc1)NC(=O)[C@@H](NC(=O)[C@H](C)NC(=O)[C@H](CC(C)C)NC(=O)[C@H](CO)NC(=O)[C@H](CCC(N)=O)NC(=O)[C@@H]1CCCN1C(=O)[C@@H](NC(=O)[C@H](Cc1ccc(O)cc1)NC(=O)[C@H](CCC(N)=O)NC(=O)[C@H](CCC(=O)O)NC(=O)CCCCCNC(=O)CCCC[C@@H]1SC[C@@H]2NC(=O)N[C@@H]21)[C@@H](C)O)[C@@H](C)O)C(=O)NCC(=O)N[C@@H](CCCCN)C(=O)O [SN‐db‐short] ({Biotin-Ahx}-EQYTPQSLATFESFFQELGK-OH; N-terminus and C-terminus assumed),Binding to CaMKIIδ fragments,[1],binding was detected for all fragments
same,"SN‐db‐short binding to CaMKIIδ‐T287D in presence of competitor peptides AKAP18δ‐N1, CN21, CN27",[2],only marginally outcompeted
same,Rate of Ca2+ extrusion (Na+‐Ca2+ exchanger and plasma membrane Ca2+ ATPase activity),adult rat cardiomyocytes,no change
